Measured values taken from patent US7067619B2, “Integrin-binding peptides” (La Jolla Cancer Research Foundation, priority 1993, dated 2006).
Bridge positions count the residues as written; N and C are the ends. Peptide text beside a SMILES is read from it.

How the values were obtained:
[1] = biological target: αvβ5 integrin (Homo sapiens, UniProt P06756+P18084); test: Inhibition of peptide-displaying phage binding to αvβ5 integrin by synthetic peptides; design: The αvβ3, αvβ5 and α5β1 integrins were isolated from human placental extracts; from tissue; host or cells: human placenta; conditions: more potent than *CRGDC*; FIG. 10
αvβ5 integrin, sequence (P06756 31-889 limits assumed): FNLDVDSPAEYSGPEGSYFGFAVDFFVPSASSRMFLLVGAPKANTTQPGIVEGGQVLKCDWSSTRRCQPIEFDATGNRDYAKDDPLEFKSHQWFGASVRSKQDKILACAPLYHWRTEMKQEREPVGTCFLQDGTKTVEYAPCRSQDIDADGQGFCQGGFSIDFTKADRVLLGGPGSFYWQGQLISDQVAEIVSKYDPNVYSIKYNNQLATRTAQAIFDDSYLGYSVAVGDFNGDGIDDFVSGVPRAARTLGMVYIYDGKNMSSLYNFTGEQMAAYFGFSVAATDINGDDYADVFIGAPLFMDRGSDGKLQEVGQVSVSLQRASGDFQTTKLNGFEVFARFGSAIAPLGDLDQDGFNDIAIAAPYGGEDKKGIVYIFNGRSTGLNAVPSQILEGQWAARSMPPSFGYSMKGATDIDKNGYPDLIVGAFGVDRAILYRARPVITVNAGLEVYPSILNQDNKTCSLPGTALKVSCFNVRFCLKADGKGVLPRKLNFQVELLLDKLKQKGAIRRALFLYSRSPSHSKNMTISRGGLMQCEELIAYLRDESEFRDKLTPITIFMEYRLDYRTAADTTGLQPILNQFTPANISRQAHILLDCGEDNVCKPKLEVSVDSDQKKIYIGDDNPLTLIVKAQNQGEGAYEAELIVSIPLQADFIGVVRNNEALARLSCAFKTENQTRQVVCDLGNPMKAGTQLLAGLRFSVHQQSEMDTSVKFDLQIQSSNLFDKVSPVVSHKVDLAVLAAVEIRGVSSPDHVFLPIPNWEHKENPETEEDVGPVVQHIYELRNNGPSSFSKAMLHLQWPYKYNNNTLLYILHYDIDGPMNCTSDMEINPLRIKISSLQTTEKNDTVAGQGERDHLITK
αvβ5 integrin, sequence (P06756 891-1048 partner limits assumed): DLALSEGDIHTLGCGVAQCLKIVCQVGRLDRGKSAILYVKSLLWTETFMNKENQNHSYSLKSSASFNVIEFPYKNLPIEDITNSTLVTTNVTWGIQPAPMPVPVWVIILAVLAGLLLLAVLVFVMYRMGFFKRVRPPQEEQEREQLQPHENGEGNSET
αvβ5 integrin, sequence (P18084 24-799): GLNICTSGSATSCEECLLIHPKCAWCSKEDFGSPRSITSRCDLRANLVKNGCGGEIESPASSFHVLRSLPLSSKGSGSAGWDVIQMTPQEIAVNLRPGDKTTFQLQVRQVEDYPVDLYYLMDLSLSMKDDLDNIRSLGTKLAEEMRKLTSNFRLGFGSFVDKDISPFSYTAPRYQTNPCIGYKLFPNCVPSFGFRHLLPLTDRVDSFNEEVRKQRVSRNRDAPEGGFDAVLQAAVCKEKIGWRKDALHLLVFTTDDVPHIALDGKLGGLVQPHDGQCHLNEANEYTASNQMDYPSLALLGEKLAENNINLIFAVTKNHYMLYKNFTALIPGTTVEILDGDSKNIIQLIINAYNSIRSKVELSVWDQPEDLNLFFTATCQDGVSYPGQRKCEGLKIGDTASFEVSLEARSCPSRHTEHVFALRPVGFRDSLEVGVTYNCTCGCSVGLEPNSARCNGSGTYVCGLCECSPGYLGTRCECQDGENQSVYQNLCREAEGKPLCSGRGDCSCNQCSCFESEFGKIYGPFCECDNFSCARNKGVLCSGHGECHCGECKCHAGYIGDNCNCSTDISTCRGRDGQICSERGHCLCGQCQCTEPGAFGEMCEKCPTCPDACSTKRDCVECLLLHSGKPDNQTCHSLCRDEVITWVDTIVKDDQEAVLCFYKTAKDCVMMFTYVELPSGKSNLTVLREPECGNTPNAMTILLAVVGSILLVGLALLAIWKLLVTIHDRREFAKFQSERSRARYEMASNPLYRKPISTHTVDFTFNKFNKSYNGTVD
Protocol: Phage containing the […] [SEQ ID NO:10] sequence were incubated for 1 hour in integrin-coated wells in the presence of the competing peptides or dimethyl sulfoxide solvent as a control. The bound phage were determined as described herein.
(§1) In addition, most of the phage-binding activity in the αvβ3 preparation was captured into microliter wells coated with antibodies against the αv or β3 subunits as described previously (Koivunen et al., J. Biol. Chem., 268:20205–10 (1993). The αIIbβ3 integrin was isolated from outdated platelets (Pytela et al., Science, 231:1559–1562 (1986)).
Binding of individual cloned phage to integrins was studied in microliter wells as described in Koivunen et al., J. Cell. Biol., 124:373–380 (1994). Phage binding to α5β1 and αvβ3 were assayed in TBS buffer containing 1% BSA and 1 mM MnCl2 and binding to αvβ5 in the presence of 1 mM CaCl2. Phage that were bound were determined by their ability to infect F-pilus positive K91kan bacteria. Bacteria were grown overnight in microliter wells in the presence of tetracycline and the absorbance indicative of bacterial growth was read at 600 nm with an ELISA plate reader.

[2] = biological target: T1, α5β1 integrin (Homo sapiens, UniProt P05556+P08648); test: Inhibition of 125I-fibronectin binding to α5β1 integrin by competing peptides; conditions: 1 hour, compared with cyclic CRGDC peptide, FIG. 1
T1 construct: The αvβ3, αvβ5 and α5β1 integrins were isolated from human placental extracts; from tissue; host or cells: human placenta
T1 sequence (P08648 42-894 limits assumed): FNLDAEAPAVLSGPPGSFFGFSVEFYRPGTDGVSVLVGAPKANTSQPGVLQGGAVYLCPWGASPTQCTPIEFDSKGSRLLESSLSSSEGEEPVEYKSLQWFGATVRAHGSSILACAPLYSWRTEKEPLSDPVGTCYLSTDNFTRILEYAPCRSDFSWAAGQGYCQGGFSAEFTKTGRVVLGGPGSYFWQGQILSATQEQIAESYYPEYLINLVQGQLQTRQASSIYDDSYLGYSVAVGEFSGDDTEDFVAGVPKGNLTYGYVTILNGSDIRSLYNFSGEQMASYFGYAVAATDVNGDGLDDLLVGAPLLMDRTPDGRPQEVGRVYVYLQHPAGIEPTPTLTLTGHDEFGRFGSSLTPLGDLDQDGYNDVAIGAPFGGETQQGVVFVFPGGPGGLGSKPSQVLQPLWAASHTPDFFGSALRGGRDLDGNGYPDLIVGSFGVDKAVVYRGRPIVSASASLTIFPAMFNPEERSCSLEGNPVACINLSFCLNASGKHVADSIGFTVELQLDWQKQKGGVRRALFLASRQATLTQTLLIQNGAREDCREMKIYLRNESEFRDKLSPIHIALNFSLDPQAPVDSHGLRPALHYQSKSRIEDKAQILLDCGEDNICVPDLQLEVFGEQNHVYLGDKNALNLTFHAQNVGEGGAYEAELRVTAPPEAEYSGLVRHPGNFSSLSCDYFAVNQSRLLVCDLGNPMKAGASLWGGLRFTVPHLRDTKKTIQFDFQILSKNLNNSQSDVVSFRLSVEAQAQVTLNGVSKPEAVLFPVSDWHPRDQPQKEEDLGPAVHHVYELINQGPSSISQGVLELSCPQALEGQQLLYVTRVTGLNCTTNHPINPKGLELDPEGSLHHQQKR
T1 sequence (P08648 895-1049 partner limits assumed): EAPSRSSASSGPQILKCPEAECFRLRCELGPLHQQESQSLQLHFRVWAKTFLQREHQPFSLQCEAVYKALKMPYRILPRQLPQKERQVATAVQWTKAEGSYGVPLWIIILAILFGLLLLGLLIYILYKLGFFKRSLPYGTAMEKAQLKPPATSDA
T1 sequence (P05556 21-798): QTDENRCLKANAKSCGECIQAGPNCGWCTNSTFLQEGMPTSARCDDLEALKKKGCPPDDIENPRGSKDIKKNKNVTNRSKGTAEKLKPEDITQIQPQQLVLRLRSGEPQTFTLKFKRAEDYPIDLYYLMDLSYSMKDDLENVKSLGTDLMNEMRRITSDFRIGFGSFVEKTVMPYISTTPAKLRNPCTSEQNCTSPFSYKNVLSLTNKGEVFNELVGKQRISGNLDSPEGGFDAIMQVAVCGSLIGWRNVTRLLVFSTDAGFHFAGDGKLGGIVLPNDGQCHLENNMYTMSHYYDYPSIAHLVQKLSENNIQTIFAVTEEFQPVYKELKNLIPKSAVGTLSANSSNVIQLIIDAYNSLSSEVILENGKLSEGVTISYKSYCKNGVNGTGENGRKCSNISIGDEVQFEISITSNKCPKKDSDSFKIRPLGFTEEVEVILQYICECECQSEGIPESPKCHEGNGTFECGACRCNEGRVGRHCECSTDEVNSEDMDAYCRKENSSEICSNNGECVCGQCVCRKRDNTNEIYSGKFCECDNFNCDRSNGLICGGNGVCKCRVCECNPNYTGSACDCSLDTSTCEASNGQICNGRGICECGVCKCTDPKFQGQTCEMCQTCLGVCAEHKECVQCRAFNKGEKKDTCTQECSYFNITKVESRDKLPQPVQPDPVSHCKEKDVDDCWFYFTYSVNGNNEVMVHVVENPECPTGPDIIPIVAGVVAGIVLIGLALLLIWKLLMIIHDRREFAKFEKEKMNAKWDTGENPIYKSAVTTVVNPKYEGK
Protocol: as §1
The α5β1 integrin was bound to α5 specific antibody-coated wells by incubating 300 μl of a placental extract per well in TBS buffer containing 0.1 M octylglucoside, 1 mM CaCl2, 1 mM MnCl2 and proteinase inhibitors overnight at 4° C., (Koivunen et al., J. Biol. Chem., 268: 20205–20210 (1993). Alternatively, the α5β1 integrin was directly coated on plastic as described above.
The wells were extensively washed with TBS containing 0.1% NP-40. ^125I-labeled fibronectin (100,000 cpm per well) was incubated in the presence of competing peptides for 1 hour at 25° C. in 100 μl volume of TBS containing 0.1% NP-40 and 1 mM MnCl2, as described by Koivunen et al., J. Biol. Chem. 268: 20205–20210 (1993). After repeated washing, the bound radioactivity was quantitated with a gamma counter.
Initially, […] [SEQ ID NO:12] was examined for its ability to inhibit binding of fibronectin, which is the natural ligand for α5β1. […] Following incubation, the wells were washed and bound radioactivity was determined with a gamma counter.

[3] = biological target: T1, α5β1 integrin; test: Panning and binding of peptide-displaying phage on α5β1 integrin; conditions: phage-displayed sequence
Text: as §1
Peptide libraries were constructed in fuse 5 vector (Scott and Smith, Science 249:386–390 (1990)) as described previously (Koivunen et al., J. Cell Biol., 124:373–380 (1994). The CX5C, CX6C, CX7C and CX9 [SEQ ID NOs:39–42, respectively] libraries were prepared using synthetic oligonucleotides containing core sequences TGT(NNK)5TGT, TGT(NNK)6TGT, TGT(NNK)7TGT and TGT(NNK)9 [SEQ ID NOS:43–46, respectively] (N=equal molar mixture of A, C, G, T; K=G or T), respectively. The oligonucleotides were made double-stranded by PCR amplification with 5 cycles, purified and ligated to the N-terminus of pIII gene of fuse 5 vector. The CX5C, CX6C, CX7C and CX9 [SEQ ID NOS:39–42, respectively] vectors were transfected into MC1061 cells using 16, 60, 263 and 250 electroporations, respectively. Bacteria were cultured for 24 hours in the presence of 20 μg/ml of tetracycline, and phage were collected from the supernatant by precipitation twice with polyethylene glycol. The phage pellets were dissolved at approximately 10^13 transducing units (TU)/ml in TBS buffer containing 0.02% NaN3 and stored at 4° C. The yields of the CX5C, CX6C, CX7C and CX9 [SEQ ID NOS:39–42, respectively] primary libraries were 3.5×10^8, 1.1×10^9, 4.5×10^5 and 3.5×10^8 clones, respectively. […]
Binding of individual cloned phage to integrins was studied in microliter wells as described in Koivunen et al., J. Cell. […] Phage that were bound were determined by their ability to infect F-pilus positive K91kan bacteria. Bacteria were grown overnight in microliter wells in the presence of tetracycline and the absorbance indicative of bacterial growth was read at 600 nm with an ELISA plate reader.

| Compound | potency in inhibiting binding of RGD-containing phage to αvβ5 relative to *CRGDC* [1] | inhibition of fibronectin binding to α5β1 [2] | binding of peptide-displaying phage to the α5β1 integrin [3] |
| --- | --- | --- | --- |
| C[C@H](N)C(=O)N[C@H]1CSSC[C@@H](C(=O)NCC(=O)O)NC(=O)[C@H](Cc2ccccc2)NC(=O)[C@@H]2CSSC[C@H](NC(=O)[C@H](CC(=O)O)NC1=O)C(=O)N[C@@H](CCCNC(=N)N)C(=O)NCC(=O)N[C@@H](CC(=O)O)C(=O)N2 (H-ACDCRGDCFCG-OH; disulfide 2-10, 4-8) | 10 fold | – | – |
| GACRRETAWACGA | – | equally as well as the cyclic CRGDC | selectively bind |
